A short description of series [1]: Toxicity in Crl:CD Sprague-Dawley rat assessed as calcium level in blood at 100 mg/kg, po administered daily for 14 days (reference value: 10.1 +/-0.096 mg/dL). In kind it is organism-based. The conditions noted are these: in vivo, 336 h, time 14 day.
Series [2] in a line: Toxicity in Crl:CD Sprague-Dawley rat assessed as monocyte count in blood at 100 mg/kg, po administered daily for 14 days (reference value: 0.203+/-0.09 10^3/uL). The format is organism-based. Particulars: in vivo, 336 h, time 14 day.
Series [3] has as its target RAC-beta serine/threonine-protein kinase (Homo sapiens) (UniProt P31751). As to the kind of experiment: Inhibition of N-terminal GST-tagged human AKT2 catalytic domain (120 to 481 residues) co-expressed with His-tagged PDK1 (1 to 556 residues) in baculovirus-infected Sf21 cells using Crosstide as substrate at 1 uM in presence of ATP by Mobility shift assay.
The next series deals with MV4-11. Kind of series: Antitumor activity against human MV4-11 cells assessed as cell growth inhibition treated for 10 to 15 days. The format is functional. The conditions noted are these: time 10-15 day.
For the next series, the system named is LoVo. Kind of series: Antitumor activity against human LoVo cells assessed as cell growth inhibition treated for 10 to 15 days. In kind it is functional. Particulars: time 10-15 day.
In another series the test system is SNU-5. Kind of series: Antitumor activity against human SNU-5 cells assessed as cell growth inhibition treated for 10 to 15 days. The format is functional. Particulars: time 10-15 day.
Series [4] concerns the target Histone-lysine N-methyltransferase NSD2 (Homo sapiens, UniProt O96028, E1099K). Kind of series: Inhibition of human NSD2 E1099K mutant using Nucleosomes and [3H]SAM as substrate incubated for 30 mins to 1 hr by HotSpot kinase assay.
The test system of a further series is HCC1569. As to the kind of experiment: Antitumor activity against human HCC1569 cells assessed as cell growth inhibition treated for 10 to 15 days. The format is functional. The conditions noted are these: time 10-15 day.
The subject of a further series is OCI-Ly7. Kind of series: Antitumor activity against human OCILY7 cells assessed as cell growth inhibition treated for 10 to 15 days. The conditions noted are these: time 10-15 day. In kind it is functional.
The next series concerns MDA-MB-361. Kind of series: Antitumor activity against human MDA-MB-361 cells assessed as cell growth inhibition treated for 10 to 15 days. The format is functional. Particulars: time 10-15 day.
Series [5] has as its target DNA (cytosine-5)-methyltransferase 3A (Homo sapiens, UniProt Q9Y6K1). As to the kind of experiment: Inhibition of human DNMT3a using lambda DNA and [3H]SAM as substrate incubated for 30 mins to 1 hr by HotSpot kinase assay.
The next series relates to HCC1806. Kind of series: Antitumor activity against human HCC1806 cells assessed as cell growth inhibition treated for 10 to 15 days. In kind it is functional. Particulars: time 10-15 day.
A further series relates to SK-N-MC. Kind of series: Antitumor activity against human SK-N-MC cells assessed as cell growth inhibition treated for 10 to 15 days. In kind it is functional. Particulars: time 10-15 day.
A further series concerns DMS-114. As to the kind of experiment: Antitumor activity against human DMS-114 cells assessed as cell growth inhibition treated for 10 to 15 days. The format is functional. The conditions noted are these: time 10-15 day.
The next series concerns MKN-1. Kind of series: Antitumor activity against human MKN-1 cells assessed as cell growth inhibition treated for 10 to 15 days. In kind it is functional. Particulars: time 10-15 day.
Series [6] in a line: Antitumor activity against human NCI-H660 cells assessed as cell growth inhibition treated for 10 to 15 days. The format is functional. The conditions noted are these: time 10-15 day.
In another series the test system is NCI-N87. Kind of series: Antitumor activity against human NCI-N87 cells assessed as cell growth inhibition treated for 10 to 15 days. In kind it is functional. The conditions noted are these: time 10-15 day.
A further series has as its system PC-3. Kind of series: Antitumor activity against human PC-3 cells assessed as cell growth inhibition treated for 10 to 15 days. The format is functional. Particulars: time 10-15 day.
The subject of a further series is CEM/C2. As to the kind of experiment: Antitumor activity against human CEM/C2 cells assessed as cell growth inhibition treated for 10 to 15 days. Particulars: time 10-15 day. In kind it is functional.
In the next series the test system is Rec1. As to the kind of experiment: Antitumor activity against human REC1 cells assessed as cell growth inhibition treated for 10 to 15 days. Particulars: time 10-15 day. The format is functional.
The next series deals with RKO. As to the kind of experiment: Antitumor activity against human RKO cells assessed as cell growth inhibition treated for 10 to 15 days. Particulars: time 10-15 day. In kind it is functional.
The next series relates to ARH-77. Kind of series: Antitumor activity against human ARH-77 cells assessed as cell growth inhibition treated for 10 to 15 days. The format is functional. Particulars: time 10-15 day.
The test system of a further series is NCI-H661. Kind of series: Antitumor activity against human NCI-H661 cells assessed as cell growth inhibition treated for 10 to 15 days. The format is functional. The conditions noted are these: time 10-15 day.
The test system of the next series is ST486. Kind of series: Antitumor activity against human ST486 cells assessed as cell growth inhibition treated for 10 to 15 days. The format is functional. The conditions noted are these: time 10-15 day.
The test system of a further series is A204. As to the kind of experiment: Antitumor activity against human A204 cells assessed as cell growth inhibition treated for 10 to 15 days. The format is functional. The conditions noted are these: time 10-15 day.
The subject of another series is BT-549. As to the kind of experiment: Antitumor activity against human BT-549 cells assessed as cell growth inhibition treated for 10 to 15 days. The conditions noted are these: time 10-15 day. The format is functional.
The test system of the next series is HT1197. As to the kind of experiment: Antitumor activity against human HT1197 cells assessed as cell growth inhibition treated for 10 to 15 days. The format is functional. The conditions noted are these: time 10-15 day.
The test system of a further series is MC116. Kind of series: Antitumor activity against human MC116 cells assessed as cell growth inhibition treated for 10 to 15 days. The format is functional. The conditions noted are these: time 10-15 day.
The target in series [7] is Histone-lysine N-methyltransferase, H3 lysine-79 specific (Homo sapiens, UniProt Q8TEK3). As to the kind of experiment: Inhibition of human DOT1L using Nucleosomes and [3H]SAM as substrate incubated for 30 mins to 1 hr by HotSpot kinase assay.
Chain of Histone-lysine N-methyltransferase, H3 lysine-79 specific (Q8TEK3 whole entry): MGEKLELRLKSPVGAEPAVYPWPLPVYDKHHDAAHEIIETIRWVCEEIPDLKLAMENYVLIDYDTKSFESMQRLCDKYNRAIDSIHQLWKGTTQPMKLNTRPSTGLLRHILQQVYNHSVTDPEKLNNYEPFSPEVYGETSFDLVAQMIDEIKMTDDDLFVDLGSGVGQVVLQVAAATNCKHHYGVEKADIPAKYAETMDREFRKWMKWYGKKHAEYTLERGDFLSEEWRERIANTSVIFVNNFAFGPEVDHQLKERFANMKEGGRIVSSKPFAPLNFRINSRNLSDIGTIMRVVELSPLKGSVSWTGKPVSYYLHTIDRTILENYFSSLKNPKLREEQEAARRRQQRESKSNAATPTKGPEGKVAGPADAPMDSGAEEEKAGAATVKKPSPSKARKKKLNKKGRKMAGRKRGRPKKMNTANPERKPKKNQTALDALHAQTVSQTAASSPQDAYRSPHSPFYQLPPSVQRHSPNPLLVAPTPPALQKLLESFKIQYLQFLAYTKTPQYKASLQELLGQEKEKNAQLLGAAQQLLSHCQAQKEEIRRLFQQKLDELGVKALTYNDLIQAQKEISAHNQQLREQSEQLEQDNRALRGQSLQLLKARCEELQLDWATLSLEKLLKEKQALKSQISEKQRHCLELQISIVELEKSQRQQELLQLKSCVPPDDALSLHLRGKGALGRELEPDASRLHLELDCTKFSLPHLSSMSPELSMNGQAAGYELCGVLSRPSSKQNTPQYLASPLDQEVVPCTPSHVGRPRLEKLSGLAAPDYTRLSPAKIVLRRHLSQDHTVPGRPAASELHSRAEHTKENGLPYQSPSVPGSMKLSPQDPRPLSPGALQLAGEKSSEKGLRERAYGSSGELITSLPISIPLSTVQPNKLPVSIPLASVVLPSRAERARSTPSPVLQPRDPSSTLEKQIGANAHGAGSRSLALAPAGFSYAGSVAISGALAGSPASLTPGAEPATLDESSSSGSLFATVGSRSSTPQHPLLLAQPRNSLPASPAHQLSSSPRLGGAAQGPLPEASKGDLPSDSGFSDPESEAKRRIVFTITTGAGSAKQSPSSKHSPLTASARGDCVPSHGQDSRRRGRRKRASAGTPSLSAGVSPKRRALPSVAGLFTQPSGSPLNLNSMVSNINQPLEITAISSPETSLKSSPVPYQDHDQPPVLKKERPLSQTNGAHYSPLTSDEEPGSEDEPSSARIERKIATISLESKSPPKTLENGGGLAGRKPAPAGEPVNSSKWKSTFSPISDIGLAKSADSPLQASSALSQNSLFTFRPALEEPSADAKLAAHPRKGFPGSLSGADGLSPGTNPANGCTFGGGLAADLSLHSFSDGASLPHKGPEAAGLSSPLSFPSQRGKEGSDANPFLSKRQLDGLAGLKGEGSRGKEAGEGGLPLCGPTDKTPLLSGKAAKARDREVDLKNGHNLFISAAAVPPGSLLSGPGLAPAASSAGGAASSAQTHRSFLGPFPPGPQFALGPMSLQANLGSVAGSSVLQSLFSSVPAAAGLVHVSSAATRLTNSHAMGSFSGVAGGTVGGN
For the next series, the system named is SUP-T1. Kind of series: Antitumor activity against human SUP-T1 cells assessed as cell growth inhibition treated for 10 to 15 days. The conditions noted are these: time 10-15 day. In kind it is functional.
A further series has as its system Ramos. As to the kind of experiment: Antitumor activity against human Ramos cells assessed as cell growth inhibition treated for 10 to 15 days. In kind it is functional. The conditions noted are these: time 10-15 day.
Another series deals with HCC1395. Kind of series: Antitumor activity against human HCC1395 cells assessed as cell growth inhibition treated for 10 to 15 days. In kind it is functional. Particulars: time 10-15 day.
The next series deals with EB2. Kind of series: Antitumor activity against human EB2 cells assessed as cell growth inhibition treated for 10 to 15 days. In kind it is functional. The conditions noted are these: time 10-15 day.
Another series relates to DU-4475. Kind of series: Antitumor activity against human DU-4475 cells assessed as cell growth inhibition treated for 10 to 15 days. In kind it is functional. The conditions noted are these: time 10-15 day.
Series [8] addresses Ribosomal protein S6 kinase alpha-2 (Homo sapiens) (UniProt Q15349). Kind of series: Inhibition of N-terminal GST-fused human full length RSK3 (1 to 733 residues) expressed in baculovirus expression system using S6K peptide(N-FL) as substrate at 1 uM in presence of ATP by Mobility shift assay.
A further series concerns MKN-7. Kind of series: Antitumor activity against human MKN-7 cells assessed as cell growth inhibition treated for 10 to 15 days. The format is functional. Particulars: time 10-15 day.
The test system of a further series is CAMA-1. Kind of series: Antitumor activity against human CAMA-1 cells assessed as cell growth inhibition treated for 10 to 15 days. The format is functional. Particulars: time 10-15 day.
Series [9] is described as follows: Antitumor activity against human MJ cells assessed as cell growth inhibition treated for 10 to 15 days. The format is functional. The conditions noted are these: time 10-15 day.
Series [10] in a line: Antitumor activity against human RDES cells assessed as cell growth inhibition treated for 10 to 15 days. The format is functional. Particulars: RD-ES, time 10-15 day.
The subject of another series is Panc1005. Kind of series: Antitumor activity against human Panc1005 cells assessed as cell growth inhibition treated for 10 to 15 days. The format is functional. The conditions noted are these: time 10-15 day.
In another series the test system is HH. Kind of series: Antitumor activity against human HH cells assessed as cell growth inhibition treated for 10 to 15 days. The format is functional. Particulars: time 10-15 day.
The test system of a further series is SW48. As to the kind of experiment: Antitumor activity against human SW48 cells assessed as cell growth inhibition treated for 10 to 15 days. The format is functional. The conditions noted are these: time 10-15 day.
The subject of a further series is SJRH30. Kind of series: Antitumor activity against human SJRH30 cells assessed as cell growth inhibition treated for 10 to 15 days. In kind it is functional. Particulars: time 10-15 day.
The nature of series [11]: Antitumor activity against human OVMANA cells assessed as cell growth inhibition treated for 10 to 15 days. In kind it is functional. Particulars: time 10-15 day.
Series [12] in a line: Antitumor activity against human NCI-H841 cells assessed as cell growth inhibition treated for 10 to 15 days. The format is functional. The conditions noted are these: time 10-15 day.
The test system of another series is CA46. As to the kind of experiment: Antitumor activity against human CA46 cells assessed as cell growth inhibition treated for 10 to 15 days. The format is functional. Particulars: time 10-15 day.

Chain of DNA (cytosine-5)-methyltransferase 3A (Q9Y6K1 whole entry, looked up): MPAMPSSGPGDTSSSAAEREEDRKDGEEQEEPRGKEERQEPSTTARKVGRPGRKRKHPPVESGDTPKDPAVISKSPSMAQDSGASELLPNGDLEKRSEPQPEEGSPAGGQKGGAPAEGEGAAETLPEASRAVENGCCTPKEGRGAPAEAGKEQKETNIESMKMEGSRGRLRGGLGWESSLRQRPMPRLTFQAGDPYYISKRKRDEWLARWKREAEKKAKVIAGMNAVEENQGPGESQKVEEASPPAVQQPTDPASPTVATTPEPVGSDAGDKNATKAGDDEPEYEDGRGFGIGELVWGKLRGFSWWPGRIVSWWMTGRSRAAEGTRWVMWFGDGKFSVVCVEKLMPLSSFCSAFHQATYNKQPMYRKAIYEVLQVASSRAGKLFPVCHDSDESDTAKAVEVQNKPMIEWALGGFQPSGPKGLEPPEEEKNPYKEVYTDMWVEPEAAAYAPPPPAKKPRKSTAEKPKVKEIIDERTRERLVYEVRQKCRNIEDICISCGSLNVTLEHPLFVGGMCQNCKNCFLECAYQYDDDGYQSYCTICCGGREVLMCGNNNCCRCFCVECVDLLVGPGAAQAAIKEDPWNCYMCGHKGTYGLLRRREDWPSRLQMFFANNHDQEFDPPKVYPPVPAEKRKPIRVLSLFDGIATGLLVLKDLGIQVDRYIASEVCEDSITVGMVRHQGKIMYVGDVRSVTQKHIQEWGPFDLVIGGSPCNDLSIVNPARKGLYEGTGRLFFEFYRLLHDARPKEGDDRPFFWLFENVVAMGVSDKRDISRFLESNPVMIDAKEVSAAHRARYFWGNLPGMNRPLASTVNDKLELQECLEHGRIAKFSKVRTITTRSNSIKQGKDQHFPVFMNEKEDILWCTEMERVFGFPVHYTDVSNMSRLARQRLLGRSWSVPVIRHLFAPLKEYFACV
Chain of Ribosomal protein S6 kinase alpha-2 (Homo sapiens) (Q15349 whole entry, the tested form may be a part): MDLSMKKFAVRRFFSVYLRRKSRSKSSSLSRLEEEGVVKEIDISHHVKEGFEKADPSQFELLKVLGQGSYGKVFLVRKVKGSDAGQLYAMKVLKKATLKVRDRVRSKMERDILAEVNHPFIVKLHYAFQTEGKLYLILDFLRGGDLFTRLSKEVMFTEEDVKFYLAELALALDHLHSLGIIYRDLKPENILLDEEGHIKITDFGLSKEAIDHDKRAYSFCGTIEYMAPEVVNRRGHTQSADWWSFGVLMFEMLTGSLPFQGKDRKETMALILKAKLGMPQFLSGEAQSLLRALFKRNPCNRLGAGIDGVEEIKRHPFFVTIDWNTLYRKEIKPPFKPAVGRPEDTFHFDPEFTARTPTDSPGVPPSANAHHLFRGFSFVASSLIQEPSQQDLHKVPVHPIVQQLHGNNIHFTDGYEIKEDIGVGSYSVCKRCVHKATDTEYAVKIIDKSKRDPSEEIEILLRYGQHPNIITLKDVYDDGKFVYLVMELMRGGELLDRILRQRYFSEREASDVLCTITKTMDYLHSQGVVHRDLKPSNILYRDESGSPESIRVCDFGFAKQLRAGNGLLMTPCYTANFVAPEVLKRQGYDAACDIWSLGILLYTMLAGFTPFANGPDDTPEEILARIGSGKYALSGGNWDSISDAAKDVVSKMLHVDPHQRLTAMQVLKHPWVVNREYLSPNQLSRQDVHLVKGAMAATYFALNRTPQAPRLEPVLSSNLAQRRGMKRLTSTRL
Chain of Histone-lysine N-methyltransferase NSD2 (O96028 whole entry E1099K): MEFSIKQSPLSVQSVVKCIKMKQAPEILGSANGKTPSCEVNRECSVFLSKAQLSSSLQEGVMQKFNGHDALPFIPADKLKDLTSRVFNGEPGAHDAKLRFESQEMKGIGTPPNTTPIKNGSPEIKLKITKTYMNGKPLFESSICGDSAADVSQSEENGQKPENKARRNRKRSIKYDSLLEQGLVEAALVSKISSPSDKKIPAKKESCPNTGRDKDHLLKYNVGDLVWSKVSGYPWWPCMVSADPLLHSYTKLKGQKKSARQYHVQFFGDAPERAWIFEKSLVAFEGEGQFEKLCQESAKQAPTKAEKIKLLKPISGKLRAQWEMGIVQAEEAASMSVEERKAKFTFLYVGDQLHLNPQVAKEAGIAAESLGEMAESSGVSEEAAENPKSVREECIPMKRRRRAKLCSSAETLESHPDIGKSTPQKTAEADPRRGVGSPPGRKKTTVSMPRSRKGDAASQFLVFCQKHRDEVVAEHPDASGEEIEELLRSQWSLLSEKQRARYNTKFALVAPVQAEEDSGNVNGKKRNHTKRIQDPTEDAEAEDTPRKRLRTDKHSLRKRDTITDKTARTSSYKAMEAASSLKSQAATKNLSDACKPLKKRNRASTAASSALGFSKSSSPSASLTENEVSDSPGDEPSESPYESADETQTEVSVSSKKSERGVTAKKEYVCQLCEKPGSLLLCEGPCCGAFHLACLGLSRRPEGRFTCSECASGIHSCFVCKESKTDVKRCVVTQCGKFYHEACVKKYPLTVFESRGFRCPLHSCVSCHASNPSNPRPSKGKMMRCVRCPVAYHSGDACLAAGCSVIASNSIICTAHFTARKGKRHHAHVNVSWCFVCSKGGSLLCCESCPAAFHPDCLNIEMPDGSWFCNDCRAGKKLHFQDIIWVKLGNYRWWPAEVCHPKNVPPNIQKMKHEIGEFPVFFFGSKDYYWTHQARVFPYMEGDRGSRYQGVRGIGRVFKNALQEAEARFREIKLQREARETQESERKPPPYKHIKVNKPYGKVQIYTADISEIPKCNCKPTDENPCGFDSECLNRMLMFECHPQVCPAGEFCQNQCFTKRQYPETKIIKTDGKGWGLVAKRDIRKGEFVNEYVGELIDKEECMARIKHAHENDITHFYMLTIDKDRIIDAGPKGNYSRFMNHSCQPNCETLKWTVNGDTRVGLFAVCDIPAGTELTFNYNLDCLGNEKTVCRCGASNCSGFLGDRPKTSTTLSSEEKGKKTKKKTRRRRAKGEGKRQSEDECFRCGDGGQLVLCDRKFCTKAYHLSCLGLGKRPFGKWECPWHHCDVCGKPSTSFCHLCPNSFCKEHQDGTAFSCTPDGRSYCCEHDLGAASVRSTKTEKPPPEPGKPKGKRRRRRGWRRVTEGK
Chain of RAC-beta serine/threonine-protein kinase (Homo sapiens) (P31751 whole entry, the tested form may be a part): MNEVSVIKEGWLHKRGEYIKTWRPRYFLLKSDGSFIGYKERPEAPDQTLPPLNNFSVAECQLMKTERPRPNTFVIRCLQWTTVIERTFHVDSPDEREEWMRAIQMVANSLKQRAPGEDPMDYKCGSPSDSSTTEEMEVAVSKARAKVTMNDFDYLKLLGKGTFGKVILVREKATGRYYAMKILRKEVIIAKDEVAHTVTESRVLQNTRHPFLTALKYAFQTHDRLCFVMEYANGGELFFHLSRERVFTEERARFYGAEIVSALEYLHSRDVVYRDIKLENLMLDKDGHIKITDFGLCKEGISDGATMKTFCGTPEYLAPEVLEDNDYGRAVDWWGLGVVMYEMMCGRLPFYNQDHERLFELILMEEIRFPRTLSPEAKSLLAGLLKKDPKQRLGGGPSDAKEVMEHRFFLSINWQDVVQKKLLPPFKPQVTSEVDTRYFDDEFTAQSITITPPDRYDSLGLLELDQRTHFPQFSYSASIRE

As to `Cc1cc(C)c(CNC(=O)c2cc(Br)c3c(c2C)O[C@@](C)([C@H]2CC[C@H](N(C)C)CC2)O3)c(=O)[nH]1`, the Activity was 9.88 mg/dL in [1] and 0.105 10^3 /uL in series [2]. Also, in series [3], the inhibition is -9.5%.
Turning to `Cc1cc(C)c(CNC(=O)c2cc(Cl)c3c(c2C)O[C@@](C)([C@H]2CC[C@H](N(C)C)CC2)O3)c(=O)[nH]1` [VALEMETOSTAT], the GI50 in the series with MV4-11 was 3.19 nM; in the series on LoVo, 150 nM; with SNU-5, 52.4 nM; in the series on HCC1569, over 1000 nM; in the series with OCI-Ly7, 59.2 nM; in the series with MDA-MB-361 it was 109 nM. The GI50 with HCC1806 was over 1000 nM; in the series with SK-N-MC, over 1000 nM; with DMS-114, 5.5 nM; in the series on MKN-1, over 1000 nM; in series [6] it was over 1000 nM; in the series on NCI-N87, 536 nM. Besides, the GI50 in the series on PC-3 is over 1000 nM; with CEM/C2, over 1000 nM; in the series on Rec1, 480 nM; with RKO it was over 1000 nM; in the series with ARH-77 it was over 1000 nM; in the series on NCI-H661, 359 nM. Further, the GI50 in the series with ST486 is over 1000 nM; in the series with A204 it was 29.2 nM; in the series with BT-549, over 1000 nM; with HT1197, 13.1 nM; in the series on MC116 it was 50.4 nM; with SUP-T1, over 1000 nM. For the same compound, the concentration for 50% growth inhibition (GI50) in the series on Ramos was over 1000 nM; with HCC1395, over 1000 nM; in the series on EB2 it was over 1000 nM; with DU-4475, over 1000 nM; with MKN-7, over 1000 nM; with CAMA-1, 6.56 nM. For the same compound, the GI50 is 26 nM in series [9]; over 1000 nM in [10]; over 1000 nM with Panc1005; 7.18 nM with HH; over 1000 nM in the series on SW48; over 1000 nM with SJRH30. Further, the GI50 in series [11] was over 1000 nM; in series [12], 134 nM; in the series with CA46, 296 nM. Further, the IC50 in series [4], in [5] and in [7] was 100000 nM each time. The inhibition in series [8] was -3.9%.

The term inhibition denotes the relative decrease from the control value, in per cent. What is called GI50 is the concentration giving 50% growth inhibition. The IC50 is the midpoint of a concentration-inhibition curve. A low value points to inhibition by little substance.

(Values after ChEMBL document CHEMBL5647694, “Novel orally bioavailable EZH1/2 dual inhibitors with greater antitumor efficacy than an EZH2 selective inhibitor” (Cancer Sci, 2017).)
